Like-named read-outs stand apart in the source and are kept apart here. Residues, ends and D or L forms follow the SMILES beside them.

The assay addresses h-mT1R2-481/T1R3mosaicA (UniProt Q8TE23+Q925D8, A12W/A31M/A537S/A558R/A564V/A568V/A570T/A588V/A645S/A649T/A658V/A698V/A702T/A782V/A793V/A807V/C582S/C678S/E16H/E530V/E534N/E542M/E548N/E725V/F14L/F29L/F525Y/F541I/F612A/F622V/F665L/F695L/G696N/G701T/H484Y/H528R/H728R/I36V/I481V/I486P/I490V/I510L/I518V/I595M/I60P/I617V/I643V/I645L/I692L/I695G/I706V/I740A/I803L/K30R/K504M/K555R/K565R/K626T/K714N/K818R/K827G/L17P/L521P/L560F/L571I/L578I/L610P/L631F/L636F/L639V/L684P/L688V/L702I/L734M/L735F/L800F/L823M/L825Q/M19T/M492I/M616G/M644L/M682V/M690V/M744T/M748V/N52R/N540G/N541S/N547G/N58S/N63T/N675D/N721H/P545F/P561R/P564S/P61V/P638T/P824S/Q32K/Q536L/Q53S/Q546K/Q550E/Q555R/Q56R/Q611L/Q676H/Q757R/Q795R/Q831P/R498S/R632Q/R667S/S22P/S45E/S501P/S547N/S550A/S576L/S595F/S610P/S628F/S635P/S637R/S663R/S670G/S679G/S681F/S703N/S717H/S727G/S784D/S804G/T46A/T50G/T529S/T542A/T549I/T609V/T629S/T642S/T663I/T694M/T705I/T706G/T716I/T813A/V508I/V512P/V557A/V573A/V584A/V585L/V613L/V617M/V673M/V687A/V691A/V694A/V718L/V718M/V723A/V729T/V738A/V741L/V774I/V791M/V805L/V812A/V821L/W599R/W676R/W824R/Y533F/Y615F/Y671F/Y680C/Y769S/Y783H/Y794L). Particulars: HEK293E cells.

Where [1] appears, read: Table 3, genes h-mT481/T3mA (h-mT1R2-481, T1R3mA).
[2] abbreviates: Table 4, genes h-mT481/T3mA (h-mT1R2-481, T1R3mA).
The mark [3] stands for this setting: Table 5, genes h-mT481/T3mA (h-mT1R2-481, T1R3mA).
[4] abbreviates: Table 6, genes h-mT481/T1Rm3A (h-mT1R2-481, T1R3mA).

h-mT1R2-481/T1R3mosaicA, sequence (Q8TE23 with tags, fused parts or gaps with the stated changes limits assumed): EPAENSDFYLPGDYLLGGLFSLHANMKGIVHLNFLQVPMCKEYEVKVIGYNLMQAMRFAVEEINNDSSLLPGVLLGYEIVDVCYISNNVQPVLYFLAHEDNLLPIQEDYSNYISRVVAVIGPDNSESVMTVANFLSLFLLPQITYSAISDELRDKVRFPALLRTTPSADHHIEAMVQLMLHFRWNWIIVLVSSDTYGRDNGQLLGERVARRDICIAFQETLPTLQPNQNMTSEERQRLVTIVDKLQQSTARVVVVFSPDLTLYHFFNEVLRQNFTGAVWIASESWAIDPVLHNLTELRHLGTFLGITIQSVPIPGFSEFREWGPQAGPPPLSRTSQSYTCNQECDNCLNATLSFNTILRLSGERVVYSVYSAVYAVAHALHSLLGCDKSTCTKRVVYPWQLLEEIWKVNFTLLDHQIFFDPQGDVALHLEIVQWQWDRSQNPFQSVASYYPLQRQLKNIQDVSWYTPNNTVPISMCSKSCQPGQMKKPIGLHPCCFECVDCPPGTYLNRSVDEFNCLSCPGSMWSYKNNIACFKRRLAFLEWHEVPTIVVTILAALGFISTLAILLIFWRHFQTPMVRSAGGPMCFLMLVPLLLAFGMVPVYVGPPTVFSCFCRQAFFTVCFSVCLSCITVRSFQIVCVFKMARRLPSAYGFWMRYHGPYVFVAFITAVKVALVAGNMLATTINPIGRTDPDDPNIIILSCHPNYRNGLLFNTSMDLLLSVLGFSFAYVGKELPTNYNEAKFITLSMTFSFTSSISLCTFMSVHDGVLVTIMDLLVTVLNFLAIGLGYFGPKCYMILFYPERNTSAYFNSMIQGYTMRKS
h-mT1R2-481/T1R3mosaicA, sequence (Q925D8 with tags, fused parts or gaps with the stated changes limits assumed): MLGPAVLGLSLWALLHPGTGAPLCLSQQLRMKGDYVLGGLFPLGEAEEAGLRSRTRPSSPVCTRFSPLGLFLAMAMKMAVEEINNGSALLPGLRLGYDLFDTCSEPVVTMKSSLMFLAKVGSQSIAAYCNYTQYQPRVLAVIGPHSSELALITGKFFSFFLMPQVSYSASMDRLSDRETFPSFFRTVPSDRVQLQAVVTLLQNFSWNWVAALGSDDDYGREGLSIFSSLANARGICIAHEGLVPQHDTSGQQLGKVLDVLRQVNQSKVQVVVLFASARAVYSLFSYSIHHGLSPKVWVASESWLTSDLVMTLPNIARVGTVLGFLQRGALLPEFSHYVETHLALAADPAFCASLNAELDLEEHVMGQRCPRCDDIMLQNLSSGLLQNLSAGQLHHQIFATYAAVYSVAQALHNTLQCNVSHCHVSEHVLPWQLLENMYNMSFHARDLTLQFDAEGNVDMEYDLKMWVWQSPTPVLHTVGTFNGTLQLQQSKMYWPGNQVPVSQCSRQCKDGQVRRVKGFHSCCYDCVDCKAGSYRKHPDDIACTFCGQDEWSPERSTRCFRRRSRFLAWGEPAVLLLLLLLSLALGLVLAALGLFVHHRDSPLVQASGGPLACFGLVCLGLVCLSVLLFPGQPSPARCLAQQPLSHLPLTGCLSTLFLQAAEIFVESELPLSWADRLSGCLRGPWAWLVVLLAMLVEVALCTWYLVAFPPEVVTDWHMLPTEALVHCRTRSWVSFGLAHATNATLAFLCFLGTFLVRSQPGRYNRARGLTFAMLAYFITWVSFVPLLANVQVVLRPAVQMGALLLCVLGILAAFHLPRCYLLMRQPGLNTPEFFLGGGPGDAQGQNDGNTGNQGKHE

`CC1=CC(=O)NS(=O)(=O)O1` [Acesulfame K, acesulfame potassium] had a S/N under setting [1] of 4.7, a S/N under setting [2] of 5.4, a S/N under setting [3] of 4.7 and a S/N under setting [4] of 6.0.

As to `COC(=O)[C@H](Cc1ccccc1)NC(=O)[C@H](CC(=O)O)NCCCc1ccc(OC)c(O)c1` [Advantame, advantame], the S/N reads like this: under setting [1], 10.6; under setting [2], 11.3; under setting [3], 10.6; under setting [4], 10.5.

For the molecule `COC(=O)[C@H](Cc1ccccc1)NC(=O)[C@@H](N)CC(=O)O` [Aspartame, aspartame] (HELM PEPTIDE1{D.F.[CO[*:1]]}$$$$V2.0), the S/N stood at 7.0 under setting [1], 9.4 under setting [2], 7.0 under setting [3] and 7.3 under setting [4].

In the case of `COc1ccc(CCC(=O)c2c(O)cc(O[C@@H]3O[C@H](CO)[C@@H](O)[C@H](O)[C@H]3O[C@@H]3O[C@@H](C)[C@H](O)[C@@H](O)[C@H]3O)cc2O)cc1O` [NHDC, neohesperidin dihydrochalcone], the S/N is 4.3 under setting [3] and 5.9 under setting [4].

On to `COC(=O)[C@H](Cc1ccccc1)NC(=O)[C@H](CC(=O)O)NCCC(C)(C)C` [Neotame, neotame], for which the S/N runs as follows: under setting [1], 8.8; under setting [2], 9.4; under setting [3], 8.8; under setting [4], 8.9.

On to `C[C@H](NC(=Nc1ccc(C#N)cc1)NCC(=O)O)c1ccccc1` [SC-45647, [3-[(S)-1-phenylethyl]-2-(4-cyanophenyl)guanidino]acetic acid], for which the S/N reads like this: under setting [1], 8.4; under setting [2], 7.9; under setting [3], 8.4; under setting [4], 8.7.

With `O=C1NS(=O)(=O)c2ccccc21.[Na]` [Saccharin Na, sodium saccharin], the S/N under setting [1] is recorded as 5.6, the S/N under setting [2] is on record as 5.6, the S/N under setting [3] is listed as 5.6 and the S/N under setting [4] stood at 6.9.

`OC[C@H]1O[C@H](O[C@]2(CCl)O[C@H](CCl)[C@@H](O)[C@@H]2O)[C@H](O)[C@@H](O)[C@H]1Cl` [Sucralose, sucralose]: the S/N reads like this: under setting [1], 7.8; under setting [2], 9.0; under setting [3], 7.8; under setting [4], 7.0.

In the case of `OC[C@H]1O[C@@](CO)(O[C@H]2O[C@H](CO)[C@@H](O)[C@H](O)[C@H]2O)[C@@H](O)[C@@H]1O` [Sucrose, sucrose], the S/N reads like this: under setting [1], 3.4; under setting [2], 3.9; under setting [3], 3.4; under setting [4], 3.8.

The values above are taken from patent US9341616B2, “Sweet taste receptor chimeric proteins and use thereof” (AJINOMOTO CO., INC., priority 2014, dated 2016).
